25 compounds from patent US11299488B2, “Five membered-aminoheterocycle and 5,6-or 6,6-membered bicyclic aminoheterocyclic inhibitors of rock for the treatment of heart failure” (BRISTOL-MYERS SQUIBB COMPANY, priority 2017, dated 2022) can be followed below.

ROCK2, sequence (O75116 whole entry, species assumed): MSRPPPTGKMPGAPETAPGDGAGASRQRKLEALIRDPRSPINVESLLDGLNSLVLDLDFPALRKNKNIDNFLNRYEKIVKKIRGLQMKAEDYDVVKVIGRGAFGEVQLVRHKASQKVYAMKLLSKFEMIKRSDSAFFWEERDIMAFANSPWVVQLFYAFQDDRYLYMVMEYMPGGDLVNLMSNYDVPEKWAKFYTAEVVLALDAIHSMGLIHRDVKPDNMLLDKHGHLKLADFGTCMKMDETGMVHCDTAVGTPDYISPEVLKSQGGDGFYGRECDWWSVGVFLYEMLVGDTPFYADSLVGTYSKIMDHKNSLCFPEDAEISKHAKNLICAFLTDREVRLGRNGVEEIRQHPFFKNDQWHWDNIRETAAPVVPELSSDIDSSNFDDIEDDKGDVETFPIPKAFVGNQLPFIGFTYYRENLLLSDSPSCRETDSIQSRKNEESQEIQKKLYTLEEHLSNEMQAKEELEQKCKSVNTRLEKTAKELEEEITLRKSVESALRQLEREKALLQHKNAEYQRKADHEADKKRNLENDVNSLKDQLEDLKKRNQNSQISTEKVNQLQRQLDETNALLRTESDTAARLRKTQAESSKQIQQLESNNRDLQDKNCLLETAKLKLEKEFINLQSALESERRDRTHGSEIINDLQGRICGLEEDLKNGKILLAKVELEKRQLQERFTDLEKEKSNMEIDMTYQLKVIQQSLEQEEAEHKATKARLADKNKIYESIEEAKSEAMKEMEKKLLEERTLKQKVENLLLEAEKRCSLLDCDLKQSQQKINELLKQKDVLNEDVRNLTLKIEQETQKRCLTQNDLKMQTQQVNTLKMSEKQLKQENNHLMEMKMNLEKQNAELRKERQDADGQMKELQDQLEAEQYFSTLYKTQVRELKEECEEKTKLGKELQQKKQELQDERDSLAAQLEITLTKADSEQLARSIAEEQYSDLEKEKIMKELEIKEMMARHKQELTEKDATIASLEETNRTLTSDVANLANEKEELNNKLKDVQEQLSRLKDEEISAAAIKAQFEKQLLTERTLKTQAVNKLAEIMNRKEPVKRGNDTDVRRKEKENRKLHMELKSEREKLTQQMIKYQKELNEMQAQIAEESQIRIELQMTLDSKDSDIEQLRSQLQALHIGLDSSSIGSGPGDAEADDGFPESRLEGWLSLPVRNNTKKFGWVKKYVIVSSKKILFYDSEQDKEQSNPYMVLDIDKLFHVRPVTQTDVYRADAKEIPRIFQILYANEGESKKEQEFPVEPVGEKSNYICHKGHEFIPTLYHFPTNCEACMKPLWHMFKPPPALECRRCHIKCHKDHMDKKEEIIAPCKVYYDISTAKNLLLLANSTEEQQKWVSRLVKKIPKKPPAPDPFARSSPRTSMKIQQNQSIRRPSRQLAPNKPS

The target in the assay is ROCK2 (Homo sapiens (Human), UniProt O75116). The assay can be described thus: ROCK assay (Caliper LABCHIP peptide phosphorylation, 5 μM ATP). It counts as biochemical. The procedure:
The effectiveness of compounds of the present invention as ROCK inhibitors can be determined in a 30 μL assay containing 20 mM HEPES, pH 7.5, 20 mM MgCl2, 0.015% Brij-35, 4 mM DTT, 5 μM ATP and 1.5 μM peptide substrate (FITC-AHA-AKRRRLSSLRA-OH) (SEQ ID No. 1). Compounds were dissolved in DMSO so that the final concentration of DMSO was <2%, and the reaction was initiated with Rho kinase variants. After incubation, the reaction was terminated by the addition of EDTA and the phosphorylated and non-phosphorylated peptides separated using a LABCHIP® 3000 Reader (Caliper Life Sciences). […] Compounds were tested in dose-response format, and the inhibition of kinase activity was calculated at each concentration of compound. The inhibition data were fit using a curve-fitting program to determine the IC50; i.e., the concentration of compound required to inhibit 50% of kinase activity. Representative Examples were tested in the ROCK assay described above and found having ROCK inhibitory activity. A range of ROCK inhibitory activity (IC50 values) of ≤50 μM (50000 nM) was observed. Table A below lists the ROCK IC50 values measured for the following examples.
Broadly, the IC50 is the point on the concentration scale where inhibition reaches its midpoint. A lower IC50 goes with inhibition by little substance. On to “2-(((2S,4r,6S)- 6-((2- ((S)-3- fluoro- pyrrolidin- 1- yl) pyrimidin-4- yl)amino) spiro[3.3] heptan-2- yl)oxy) nicotinamide [Example 69]”, for which it took 1560 nM to reach half-maximal inhibition (IC50).
The result for `NC(=O)c1cccnc1O[C@H]1CC2(C[C@H](Nc3nc4cc(F)c(Br)cc4s3)C2)C1` (stereo partly drawn) [Example 1, 2-(((2S,4s,6S)-6-((6-bromo-5-fluorobenzo[d]thiazol-2-yl)amino)spiro[3.3]heptan-2-yl)oxy)nicotinamide] reads 547 nM.
With `NC(=O)c1cccnc1O[C@H]1C[C@@]2(C[C@H](Nc3nc4ccc(F)cc4s3)C2)C1` (stereo partly drawn) [Example 2, 2-(((2S,4s,6S)-6-((6-fluorobenzo[d]thiazol-2-yl)amino)spiro[3.3]heptan-2-yl)oxy)nicotinamide] the figure was 156 nM.
The compound `NC(=O)c1cccnc1O[C@H]1C[C@@]2(C[C@H](Nc3nc4ccc(Cl)cc4s3)C2)C1` (stereo partly drawn) [Example 3, 2-(((2S,4s,6S)-6-((6-chlorobenzo[d]thiazol-2-yl)amino)spiro[3.3]heptan-2-yl)oxy)nicotinamide] showed an IC50 of 268 nM.
In the case of `NC(=O)c1cccnc1O[C@H]1C[C@@]2(C[C@H](Nc3nc4c(F)cccc4o3)C2)C1` (stereo partly drawn) [Example 6, 2-(((2S,4s,6S)-6-((4-fluorobenzo[d]oxazol-2-yl)amino)spiro[3.3]heptan-2-yl)oxy)nicotinamide], the 50% inhibitory concentration (IC50) stood at 110 nM.
The result for `COc1ccc(-c2csc(N[C@H]3C[C@]4(C3)C[C@H](Oc3ncccc3C(N)=O)C4)n2)cc1` (stereo partly drawn) [Example 8, 2-(((2S,4s,6S)-6-((4-(4-methoxyphenyl)thiazol-2-yl)amino)spiro[3.3]heptan-2-yl)oxy)nicotinamide] reads 115 nM; that for `NC(=O)c1cccnc1O[C@H]1C[C@@]2(C[C@H](Nc3nc(-c4ccccc4F)cs3)C2)C1` (stereo partly drawn) [Example 11, 2-(((2S,4s,6S)-6-((4-(2-fluorophenyl)thiazol-2-yl)amino)spiro [3.3]heptan-2-yl)oxy)nicotinamide], 1160 nM; that for `NC(=O)c1cccnc1O[C@H]1C[C@@]2(C[C@H](Nc3nc(-c4ccc(F)cc4)cs3)C2)C1` (stereo partly drawn) [Example 12, 2-(((2S,4s,6S)-6-((4-(4-fluorophenyl)thiazol-2-yl)amino)spiro [3.3]heptan-2-yl)oxy)nicotinamide], 846 nM.
On to `NC(=O)c1cccnc1O[C@H]1C[C@@]2(C[C@H](Nc3nc(-c4ccccc4)cs3)C2)C1` (stereo partly drawn) [Example 13, 2-(((2S,4s,6S)-6-((4-phenylthiazol-2-yl)amino)spiro[3.3]heptan-2-yl)oxy)nicotinamide], for which the IC50 came out at 96 nM.
`Cn1c(N[C@H]2C[C@]3(C2)C[C@H](Oc2ncccc2C(N)=O)C3)nc2c(F)cccc21` (stereo partly drawn) [Example 14, 2-(((2S,4s,6S)-6-((4-fluoro-1-methyl-1H-benzo[d]imidazol-2-yl)amino)spiro[3.3]heptan-2-yl)oxy)nicotinamide] registered an IC50 of 320 nM.
`Cn1cc(-c2cccc3sc(N[C@H]4C[C@]5(C4)C[C@H](Oc4ncccc4C(N)=O)C5)nc23)cn1` (stereo partly drawn) [Example 15, 2-(((2S,4s,6S)-6-((4-(l-methyl-1H-pyrazol-4-yl)benzo[d]thiazol-2-yl)amino)spiro[3.3]heptan-2-yl)oxy)nicotinamide] displayed an IC50 of 597 nM.
The result for `NC(=O)c1cccnc1O[C@H]1C[C@@]2(C[C@H](Nc3nnc(-c4ccc(OC(F)(F)F)cc4)o3)C2)C1` (stereo partly drawn) [Example 16, 2-(((2S,4s,6S)-6-((5-(4-(trifluoromethoxy)phenyl)-1,3,4-oxadiazol-2-yl)amino)spiro[3.3]heptan-2-yl)oxy)nicotinamide] reads 96 nM; that for `NC(=O)c1cccnc1O[C@H]1C[C@@]2(C[C@H](Nc3nnc(-c4ccc(F)cc4)o3)C2)C1` (stereo partly drawn) [Example 17, 2-(((2S,4s,6S)-6-((5-(4-fluorophenyl)-1,3,4-oxadiazol-2-yl)amino)spiro[3.3]heptan-2-yl)oxy)nicotinamide], 70 nM; that for `NC(=O)c1cccnc1O[C@H]1C[C@@]2(C[C@H](Nc3nnc(-c4ccc(F)c(F)c4)o3)C2)C1` (stereo partly drawn) [Example 18, 2-(((2S,4s,6S)-6-((5-(3,4-difluorophenyl)-1,3,4-oxadiazol-2-yl)amino)spiro[3.3]heptan-2-yl)oxy)nicotinainide], 326 nM.
With `NC(=O)c1cccnc1O[C@H]1C[C@@]2(C[C@H](Nc3nnc(-c4ccc(F)c(F)c4F)o3)C2)C1` (stereo partly drawn) [Example 19, 2-(((2S,4s,6S)-6-((5-(2,3,4-trifluorophenyl)-1,3,4-oxadiazol-2-yl)amino)spiro[3.3]heptan-2-yl)oxy)nicotinamide] the figure was 287 nM.
The result for `NC(=O)c1cccnc1O[C@H]1C[C@@]2(C[C@H](Nc3nnc(-c4ccc(F)cc4F)o3)C2)C1` (stereo partly drawn) [Example 20, 2-(((2S,4s,6S)-6-((5-(2,4-difluorophenyl)-1,3,4-oxadiazol-2-yl)amino)spiro[3.3]heptan-2-yl)oxy)nicotinamide] reads 537 nM.
In turn, `NC(=O)c1cccnc1O[C@H]1C[C@@]2(C[C@H](Nc3cnc4cc(F)ccc4n3)C2)C1` (stereo partly drawn) [Example 21, 2-(((2S,4s,6S)-6-((6-fluoroquinoxalin-2-yl)amino)spiro[3.3]heptan-2-yl)oxy)nicotinamide] displayed an IC50 of 73 nM.
With `NC(=O)c1cccnc1O[C@H]1C[C@@]2(C[C@H](Nc3cnc4ccc(F)cc4n3)C2)C1` (stereo partly drawn) [Example 22, 2-(((2S,4s,6S)-6-((7-fluoro-quinoxalin-2-yl)amino)spiro[3.3]heptan-2-yl)oxy) nicotinamide] the figure was 148 nM; with `COc1ccc2ncnc(N[C@H]3C[C@]4(C3)C[C@H](Oc3ncccc3C(N)=O)C4)c2c1` (stereo partly shown) [Example 23], 62 nM.
In the case of `NC(=O)c1cccnc1O[C@H]1C[C@@]2(C[C@H](Nc3ncnc4cc(Cl)ccc34)C2)C1` (stereo partly drawn) [Example 24, 2-(((2S,4s,6S)-6-((7-chloro-quinazolin-4-yl)amino)spiro[3.3]heptan-2-yl)oxy) nicotinamide], the half-maximal inhibitory concentration (IC50) amounted to 103 nM.
The result for `COc1ccc2c(N[C@H]3C[C@]4(C3)C[C@H](Oc3ncccc3C(N)=O)C4)ncnc2c1` (stereo partly drawn) [Example 25, 2-(((2S,4s,6S)-6-((7-methoxy-quinazolin-4-yl)amino)spiro[3.3]heptan-2-yl)oxy) nicotinamide] reads 165 nM; that for `NC(=O)c1cccnc1O[C@H]1C[C@@]2(C[C@H](Nc3ncnc4ccc(F)cc34)C2)C1` (stereo partly drawn) [Example 26, 2-(((2S,4s,6S)-6-((6-fluoro-quinazolin-4-yl)amino)spiro[3.3]heptan-2-yl)oxy) nicotinamide], 128 nM.
As for `NC(=O)c1cccnc1O[C@H]1C[C@@]2(C[C@H](Nc3ncc4ccccc4n3)C2)C1` (stereo partly drawn) [Example 28, 2-(((2S,4s, 6S)-6-(quinazolin-2-ylamino)spiro [3.3]heptan-2-yl)oxy) nicotinamide], half-maximal inhibition (IC50) required 258 nM.
With `NC(=O)c1cccnc1O[C@H]1C[C@@]2(C[C@H](Nc3ncc4cc(F)ccc4n3)C2)C1` (stereo partly drawn) [Example 29, 2-(((2S,4s,6S)-6-((6-fluoro-quinazolin-2-yl)amino)spiro [3.3]heptan-2-yl)oxy) nicotinamide] the figure was 141 nM.
As to `NC(=O)c1cccnc1O[C@H]1C[C@@]2(C[C@H](Nc3ncc4ccc(F)cc4n3)C2)C1` (stereo partly drawn) [Example 30, 2-(((2S,4s,6S)-6-((7-fluoro-quinazolin-2-yl)amino)spiro[3.3]heptan-2-yl)oxy) nicotinamide], the 50% inhibitory concentration (IC50) was 235 nM.
